Results reported in BindingDB's records for doi:10.7270/Q2TX3CTT (Broad Institute, 2010).

Biological target: Glycogen synthase kinase-3 beta (Homo sapiens, UniProt P49841)
Experiment: concentration-response blocking of human GSK3B – biochemical, luminescence, cell-free homogeneous, retest, dose response (AID 434954)

Glycogen synthase kinase-3 beta, sequence (P49841 whole entry): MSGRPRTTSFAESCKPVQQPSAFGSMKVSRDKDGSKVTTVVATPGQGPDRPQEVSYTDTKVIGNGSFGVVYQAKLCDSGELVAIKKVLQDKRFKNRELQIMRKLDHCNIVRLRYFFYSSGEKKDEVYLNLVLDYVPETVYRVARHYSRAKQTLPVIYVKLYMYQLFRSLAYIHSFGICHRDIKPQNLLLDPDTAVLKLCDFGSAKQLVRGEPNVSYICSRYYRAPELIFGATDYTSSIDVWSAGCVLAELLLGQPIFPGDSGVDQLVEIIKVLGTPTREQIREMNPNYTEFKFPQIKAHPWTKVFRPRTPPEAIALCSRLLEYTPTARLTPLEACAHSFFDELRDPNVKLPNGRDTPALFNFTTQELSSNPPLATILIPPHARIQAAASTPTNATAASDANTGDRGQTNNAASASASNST

Row | Compound | EC50 [µM]
1 | C[C@H](C(O)c1ccccc1)N(C)C(=O)CN (stereo not given in full) [SMR000639412] | > 300
2 | Clc1ccccc1Nc1nc(-c2ccncc2)nc2ccccc12 [MLS001163918] | > 300
3 | O=S1(=O)CC2SC(=S)N(c3ccccc3)C2C1 (stereo not given) | > 300
4 | COc1ccc2c(c1)-c1c(ssc1=S)C(C)(C)N2 [SMR000116363] | 6.72
5 | N#CCCSc1nc(N2CCOCC2)c2c(c1C#N)CCCC2 [3-(2-cyanoethylthio)-1-(4-morpholinyl)-5,6,7,8-tetrahydroisoquinoline-4-carbonitrile] | 9.29
6 | CSc1ncc(C(=O)Nc2ccccc2C)c(C)n1 | > 300
7 | Cc1c(Br)c([N+](=O)[O-])nn1CCCC(=O)N1CCN(c2ccccc2)CC1 [SMR000206162] | > 300
8 | COc1ccc(C(O)c2coc3ccc(O)c(CN(C)C)c23)cc1 (stereo not given) [SMR000070308] | > 300
9 | Cc1cc([N+](=O)[O-])c(C)cc1-c1ccc(/C=N/n2cnnc2)o1 [1-[5-(2,5-dimethyl-4-nitrophenyl)furan-2-yl]-N-(1,2,4-triazol-4-yl)methanimine] | > 300
10 | CCOC(=O)N1CCN(S(=O)(=O)c2cc(Br)cc3c2N(C(=O)C2CC2)CC3)CC1 [ethyl 4-[(5-bromanyl-1-cyclopropylcarbonyl-2,3-dihydroindol-7-yl)sulfonyl]piperazine-1-carboxylate] | > 300
11 | N#Cc1c(Cl)nc(-c2cccnc2)nc1-c1ccccc1 [MLS001165453] | > 300
12 | Cc1ccc(Nc2nc(NCC3CCCO3)nc(N)c2[N+](=O)[O-])cc1C (stereo not given) [SMR000219669] | 10.7
13 | CCc1ccc(CN=Nc2ncnc3nc[nH]c23)cc1 [MLS000419199] | 26.6
14 | COC(=O)c1ccc2c(=O)n(CC3CCCO3)c(SCC(=O)Nc3ccccc3Cl)nc2c1 (stereo not given) [2-[[2-(2-chloroanilino)-2-keto-ethyl]thio]-4-keto-3-(tetrahydrofurfuryl)quinazoline-7-carboxylic acid methyl ester] | > 300
15 | O=C(CCS(=O)(=O)c1ccccc1)Nc1ncc([N+](=O)[O-])s1 [SMR000605858] | > 300
16 | O=C(Cc1ccc(Br)cc1)Nc1ncc([N+](=O)[O-])s1 [SMR000429978] | 4.3
17 | CN1CCN(C(=O)c2ccc(OCCOc3ccccc3)cc2)CC1 [(4-methylpiperazin-1-yl)-[4-(2-phenoxyethoxy)phenyl]methanone] | > 300
18 | COc1ccc(CNCCC(c2ccc(F)cc2)c2ccc(OC)cc2)cc1 (stereo not given) [3-(4-fluorophenyl)-3-(4-methoxyphenyl)-N-[(4-methoxyphenyl)methyl]propan-1-amine] | > 300
19 | COc1ccc2occ(C(=O)c3cccs3)c2c1 | 4.03
20 | COc1ccc(Nc2nc(N)c([N+](=O)[O-])c(N3CCOCC3)n2)cc1 [SMR000434818] | 13.8
21 | COc1ccc(Nc2ccccc2C(=O)O)cc1 [SMR000370544] | > 300
22 | CCNc1nc(N)c(C(=O)c2ccc(Cl)s2)s1 [[4-amino-2-(ethylamino)-1,3-thiazol-5-yl]-(5-chlorothiophen-2-yl)methanone] | 0.174
23 | CCc1ccccc1-n1c(O)cc(N2CCc3ccccc32)c1O [SMR000285101] | > 300
24 | CCc1cc2c(s1)NC(=O)CN=C2c1cccs1 | 32.7

Row | Compound | EC50 [µM]
25 | Cc1cc(NC(=O)COc2cccnc2[N+](=O)[O-])no1 [N-(5-methyl-1,2-oxazol-3-yl)-2-(2-nitropyridin-3-yl)oxyacetamide] | > 300
26 | Cc1c(C(=O)O)cccc1-n1c(C)cc(CN=Nc2ccc([N+](=O)[O-])cn2)c1C | 21.3
27 | Cc1[nH]nc2c1C(c1ccc(F)cc1)C1C(=O)CC(C)(C)CC1=N2 (stereo not given) [4-(4-fluorophenyl)-3,7,7-trimethyl-1,4,6,7,8,9-hexahydro-5H-pyrazolo[3,4-b]quinolin-5-one] | 3.93
28 | O=C(Oc1ccc(F)c(F)c1)c1ccc2c(=O)n3c(nc2c1)CCC3 [9-oxo-2,3-dihydro-1H-pyrrolo[2,1-b]quinazoline-6-carboxylic acid (3,4-difluorophenyl) ester] | > 300
29 | COC(=O)c1ccccc1Nc1ccnc(Cl)n1 [methyl 2-[(2-chloropyrimidin-4-yl)amino]benzoate] | > 300
30 | CCCCOC(=O)C1C(C)=Nc2ncnn2C1c1cc(OC)c(OC)cc1OC (stereo not given) [butyl 5-methyl-7-(2,4,5-trimethoxyphenyl)-4,7-dihydro[1,2,4]triazolo[1,5-a]pyrimidine-6-carboxylate] | > 300
31 | Cc1ccc(C(=O)c2coc3ccc(OCC(=O)O)cc23)cc1 [2-[[3-[(4-methylphenyl)-oxomethyl]-5-benzofuranyl]oxy]acetic acid] | 3.66
32 | Cn1c(SCC(=O)Nc2ccc(Br)cn2)nnc1C1CC1 [N-(5-bromopyridin-2-yl)-2-[(5-cyclopropyl-4-methyl-1,2,4-triazol-3-yl)sulfanyl]acetamide] | 20.7
33 | Nc1nc(NC2CCCCC2)nc(NCCO)c1[N+](=O)[O-] [2-[[6-amino-2-(cyclohexylamino)-5-nitro-4-pyrimidinyl]amino]ethanol] | 2.16
34 | O=C(OCCCOC(=O)c1cc[n+]([O-])cc1)c1cc[n+]([O-])cc1 | > 300
35 | COc1ccc(CNC(=O)CN(Cc2ccccc2)C(=O)CCC(=O)Nc2ccccn2)cc1 | 24.2
36 | COc1ccc(-c2csc(N(CC3CCCO3)C(=O)c3ccccc3)n2)cc1 (stereo not given) | > 300
37 | COc1cccc2cc(CC(=O)c3cc(C)ccc3C)c(=O)oc12 [MLS001198676] | > 300
38 | COc1cc(C=C2SC(Nc3ccc(O)cc3)=NC2=O)cc(OC)c1O [MLS000715043] | > 300
39 | COc1cc(C(=O)N2CCN(c3ccccn3)CC2)cc(OC)c1OC [SMR000518691] | 45.9
40 | O=C(COC(=O)C1CCN(S(=O)(=O)c2ccccc2)CC1)NC(=O)c1ccc(OC(F)F)cc1 [MLS000394677] | > 300
41 | CCOc1ccc2nc(N3CCC(C(=O)N4CCN(C5CCCCC5)CC4)CC3)sc2c1 [(4-cyclohexyl-1-piperazinyl)-[1-(6-ethoxy-1,3-benzothiazol-2-yl)-4-piperidinyl]methanone] | > 300
42 | Cc1cc(NC(=O)CSc2ccc3nnc(-c4ccc(F)cc4)n3n2)no1 [2-{[3-(4-fluorophenyl)[1,2,4]triazolo[4,3-b]pyridazin-6-yl]thio}-N-(5-methylisoxazol-3-yl)acetamide] | > 300
43 | O=NCc1ccc(OCc2ccccc2)c(Cl)c1 [3-chloro-4-phenylmethoxybenzaldehyde oxime] | > 300
44 | Cc1ccc(-c2nn(-c3ccccc3)cc2C=Nn2c(-c3ccncc3)n[nH]c2=S)cc1 [4-[[3-(4-methylphenyl)-1-phenyl-4-pyrazolyl]methylideneamino]-3-pyridin-4-yl-1H-1,2,4-triazole-5-thione] | > 300
45 | O=C1c2ccccc2-c2onc3ccc(NCCCn4ccnc4)c1c23 [SMR000044769] | 167
46 | Cn1c(=O)c2[nH]c(CCCC(=O)O)nc2n(Cc2ccccc2)c1=S [4-(3-benzyl-1-methyl-6-oxo-2-sulfanylidene-7H-purin-8-yl)butanoic acid] | 5.17
47 | Cc1ccc(C(=O)Nc2ccc(S(=O)(=O)NCc3ccco3)cc2)cc1 [SMR000123393] | > 300
48 | CC(=O)N1CCc2c(sc(NC(=O)CCS(=O)(=O)c3ccccc3)c2C(N)=O)C1 | 122

Row | Compound | EC50 [µM]
49 | Brc1ccc(CSc2nnc(-c3cccnc3)o2)cc1 [SMR000292494] | > 300
50 | c1ccc(Cn2c(-c3ccco3)nc3nc4ccccc4nc32)cc1 [3-benzyl-2-(furan-2-yl)imidazo[4,5-b]quinoxaline] | > 300
51 | Cc1[nH]nc2c1C(c1cccc(O)c1)C1C(=O)CC(C)(C)CC1=N2 (stereo not given) [MLS000081979] | 0.421
52 | Nc1nc(Nc2ccccc2F)nc(NCCO)c1[N+](=O)[O-] [2-[6-Amino-2-(2-fluoro-phenylamino)-5-nitro-pyrimidin-4-ylamino]-ethanol] | 15.6
53 | CCN(CC)CCN1C(=O)C(=O)C(C(=O)c2ccc(S(=O)(=O)N3CCOCC3)cc2)C1c1ccccc1 (stereo not given) [(4E)-1-[2-(diethylamino)ethyl]-4-[hydroxy-[4-(4-morpholinylsulfonyl)phenyl]methylidene]-5-phenylpyrrolidine-2,3-dione] | > 300
54 | Nc1nc(S)c2ncn(C3OC(CO)C(O)C3O)c2n1 (stereo not given) [2-azanyl-9-[5-(hydroxymethyl)-3,4-bis(oxidanyl)oxolan-2-yl]-3H-purine-6-thione] | > 300
55 | CNC(=O)c1ccsc1NC(=O)C1CCN(S(=O)(=O)c2ccc(Cl)s2)CC1 [SMR000812824] | > 300
56 | COCCOC(=O)C(C#N)c1nc2ccccc2nc1N1CCN(Cc2ccccc2)CC1 (stereo not given) [MLS000078656] | > 300
57 | COCCn1c(SCC(=O)Nc2ccc(Cl)cn2)nc2ccccc21 [N-(5-chloropyridin-2-yl)-2-[1-(2-methoxyethyl)benzimidazol-2-yl]sulfanylacetamide] | 3.82
58 | CC(C)N1CCc2c(sc(NC(=O)CN3C(=O)c4ccccc4C3=O)c2C(N)=O)C1 | > 300
59 | CC(=O)CSc1nc(-c2cccs2)c(C#N)c(=O)[nH]1 [4-oxidanylidene-2-(2-oxidanylidenepropylsulfanyl)-6-thiophen-2-yl-1H-pyrimidine-5-carbonitrile] | > 300
60 | O=C(CN(Cc1cccs1)C(=O)CCC(=O)Nc1nccs1)NCc1ccccc1 [MLS000551058] | > 300
61 | CSc1nc(NCCCN(C)C)c2c3c(sc2n1)CN(C)CC3 [SMR000543143] | > 300
62 | O=c1c(-c2ccc(O)cc2)coc2cc(O)cc(O)c12 [Prunetol] | > 300
63 | Cc1cccc2cc3c(NC(=O)C(C)(C)C)nn(CC(C)C)c3nc12 | > 300
64 | CC(C)N1CC(C(=O)Nc2ccc(Br)c(Cl)c2)CC1=O (stereo not given) [N-(4-bromo-3-chlorophenyl)-5-oxo-1-propan-2-yl-3-pyrrolidinecarboxamide] | > 300
65 | Nc1nonc1-n1nnc(C(=O)N/N=C/c2ccncc2)c1CN1CCCCC1 | 0.181
66 | N#Cc1c(N)n(-c2cccc(O)c2)c2nc3ccccc3nc12 [SMR000413688] | > 300
67 | CCOC(=O)c1nnn(-c2nonc2N)c1CN(CC)CC [ethyl 1-(4-amino-1,2,5-oxadiazol-3-yl)-5-(diethylaminomethyl)triazole-4-carboxylate] | > 300
68 | COc1ccc(CNC(=O)CN(Cc2ccco2)C(=O)CCC(=O)Nc2ccccn2)cc1 [SMR000600509] | > 300
69 | Cc1ccc(Nc2nc(-c3ccncc3)nc3ccccc23)cc1 [MLS000769531] | > 300
70 | O=C(NC(Cc1ccccc1)c1ccc2c(c1)OCCCO2)c1ccccc1 (stereo not given) | > 300
